Laboratory results reported in PubChem BioAssay AID2060901 (Molecular Pharmacology Branch, DTP, NCI, 2025).

Test system: 422866-222-R5-J1-PDC complex spheroids viability
Assay: Anticancer human tumor 422866-222-R5-J1-PDC patient-derived pancreatic adenocarcinoma cell line growth inhibition [RAS]
Settings: for viability, T/C: stronger effect = lower value
Summary of the method: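 Agents were tested in combination matrices in half-log decrements from a top concentration at or near clinical Cmax (10 microM if undetermined). Targets were multi-cell spheroids of tumour lines plus HUVEC and MSC stromal cells.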

[1] = curve of first compound, second compound 0.0316 µM
[2] = curve of first compound, second compound 0.1 µM
[3] = curve of first compound, second compound 0.316 µM
[4] = curve of first compound, second compound 1 µM
[5] = curve of first compound, second compound 3.16 µM
[6] = curve of first compound, second compound 10 µM
[7] = second compound 0.0316 µM, first compound 0.00316 µM
[8] = second compound 0.0316 µM, first compound 0.01 µM
[9] = second compound 0.0316 µM, first compound 0.0316 µM
[10] = second compound 0.0316 µM, first compound 0.1 µM
[11] = second compound 0.0316 µM, first compound 0.316 µM
[12] = second compound 0.0316 µM, first compound 1 µM
[13] = second compound 0.1 µM, first compound 0.00316 µM
[14] = second compound 0.1 µM, first compound 0.01 µM
[15] = second compound 0.1 µM, first compound 0.0316 µM
[16] = second compound 0.1 µM, first compound 0.1 µM
[17] = second compound 0.1 µM, first compound 0.316 µM
[18] = second compound 0.1 µM, first compound 1 µM
[19] = second compound 0.316 µM, first compound 0.00316 µM
[20] = second compound 0.316 µM, first compound 0.01 µM
[21] = second compound 0.316 µM, first compound 0.0316 µM
[22] = second compound 0.316 µM, first compound 0.1 µM
[23] = second compound 0.316 µM, first compound 0.316 µM
[24] = second compound 0.316 µM, first compound 1 µM
[25] = second compound 1 µM, first compound 0.00316 µM
[26] = second compound 1 µM, first compound 0.01 µM
[27] = second compound 1 µM, first compound 0.0316 µM
[28] = second compound 1 µM, first compound 0.1 µM
[29] = second compound 1 µM, first compound 0.316 µM
[30] = second compound 1 µM, first compound 1 µM
[31] = second compound 3.16 µM, first compound 0.00316 µM
[32] = second compound 3.16 µM, first compound 0.01 µM
[33] = second compound 3.16 µM, first compound 0.0316 µM
[34] = second compound 3.16 µM, first compound 0.1 µM
[35] = second compound 3.16 µM, first compound 0.316 µM
[36] = second compound 3.16 µM, first compound 1 µM
[37] = second compound 10 µM, first compound 0.00316 µM
[38] = second compound 10 µM, first compound 0.01 µM
[39] = second compound 10 µM, first compound 0.0316 µM
[40] = second compound 10 µM, first compound 0.1 µM
[41] = second compound 10 µM, first compound 0.316 µM
[42] = second compound 10 µM, first compound 1 µM
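Further: spheroids exposed to compounds for 7 days.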
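Wherever viability, T/C is given: 100% = DMSO vehicle control viability.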

CC1(C)CCC(Nc2ncc(C(F)(F)F)c(-c3c[nH]c4c(P(C)(C)=O)c(C#N)ccc34)n2)CN1 (configuration not stated) + C#Cc1c(F)ccc2cc(O)cc(-c3ncc4c(N5CC6CCC(C5)N6)nc(OCC56CCCN5CC(F)C6)nc4c3F)c12
IC50 [1]: > 300 nM | IC50 [2]: 91.8 nM | IC50 [3]: 7.9 nM | IC50 [4]: 1.6 nM | IC50 [5]: < 0.949 nM | IC50 [6]: < 0.949 nM | viability, T/C (second compound 0.0316 µM, first compound 0.000949 µM): 112% | viability, T/C (second compound 0.0316 µM, first compound 0.003 µM): 83.3% | viability, T/C (second compound 0.0316 µM, first compound 0.00949 µM): 80.6% | viability, T/C (second compound 0.0316 µM, first compound 0.03 µM): 55.6% | viability, T/C (second compound 0.0316 µM, first compound 0.0949 µM): 62% | viability, T/C (second compound 0.0316 µM, first compound 0.3 µM): 56.4% | viability, T/C (second compound 0.1 µM, first compound 0.000949 µM): 100% | viability, T/C (second compound 0.1 µM, first compound 0.003 µM): 68% | viability, T/C (second compound 0.1 µM, first compound 0.00949 µM): 73.8% | viability, T/C (second compound 0.1 µM, first compound 0.03 µM): 38.2% | viability, T/C (second compound 0.1 µM, first compound 0.0949 µM): 47.5% | viability, T/C (second compound 0.1 µM, first compound 0.3 µM): 55.6% | viability, T/C (second compound 0.316 µM, first compound 0.000949 µM): 64.2% | viability, T/C (second compound 0.316 µM, first compound 0.003 µM): 66.4% | viability, T/C (second compound 0.316 µM, first compound 0.00949 µM): 45.5% | viability, T/C (second compound 0.316 µM, first compound 0.03 µM): 45.1% | viability, T/C (second compound 0.316 µM, first compound 0.0949 µM): 52.6% | viability, T/C (second compound 0.316 µM, first compound 0.3 µM): 45.3% | viability, T/C (second compound 1 µM, first compound 0.000949 µM): 54.1% | viability, T/C (second compound 1 µM, first compound 0.003 µM): 44.1% | viability, T/C (second compound 1 µM, first compound 0.00949 µM): 40.3% | viability, T/C (second compound 1 µM, first compound 0.03 µM): 42.7% | viability, T/C (second compound 1 µM, first compound 0.0949 µM): 34.5% | viability, T/C (second compound 1 µM, first compound 0.3 µM): 34.6% | viability, T/C (second compound 3.16 µM, first compound 0.000949 µM): 27% | viability, T/C (second compound 3.16 µM, first compound 0.003 µM): 37.7% | viability, T/C (second compound 3.16 µM, first compound 0.00949 µM): 28.4% | viability, T/C (second compound 3.16 µM, first compound 0.03 µM): 28.8% | viability, T/C (second compound 3.16 µM, first compound 0.0949 µM): 29.1% | viability, T/C (second compound 3.16 µM, first compound 0.3 µM): 26.9% | viability, T/C (second compound 10 µM, first compound 0.000949 µM): 24.2% | viability, T/C (second compound 10 µM, first compound 0.003 µM): 25.1% | viability, T/C (second compound 10 µM, first compound 0.00949 µM): 24.1% | viability, T/C (second compound 10 µM, first compound 0.03 µM): 27.8% | viability, T/C (second compound 10 µM, first compound 0.0949 µM): 27.9% | viability, T/C (second compound 10 µM, first compound 0.3 µM): 31.2%

C=CC(=O)Nc1cc(Nc2nccc(-c3cn(C)c4ccccc34)n2)c(OC)cc1N(C)CCN(C)C + C#Cc1c(F)ccc2cc(O)cc(-c3ncc4c(N5CC6CCC(C5)N6)nc(OCC56CCCN5CC(F)C6)nc4c3F)c12
IC50 [1]: > 1000 nM | IC50 [2]: > 1000 nM | IC50 [3]: 94.2 nM | IC50 [4]: < 3.16 nM | IC50 [5]: < 3.16 nM | IC50 [6]: < 3.16 nM | viability, T/C [7]: 83.7% | viability, T/C [8]: 97.5% | viability, T/C [9]: 85.8% | viability, T/C [10]: 74% | viability, T/C [11]: 66% | viability, T/C [12]: 57.7% | viability, T/C [13]: 74.5% | viability, T/C [14]: 91.4% | viability, T/C [15]: 68.9% | viability, T/C [16]: 58.2% | viability, T/C [17]: 62.6% | viability, T/C [18]: 50.2% | viability, T/C [19]: 72.4% | viability, T/C [20]: 69.8% | viability, T/C [21]: 47.7% | viability, T/C [22]: 56.5% | viability, T/C [23]: 42.2% | viability, T/C [24]: 40.2% | viability, T/C [25]: 50.9% | viability, T/C [26]: 44.5% | viability, T/C [27]: 34.1% | viability, T/C [28]: 35.9% | viability, T/C [29]: 33.8% | viability, T/C [30]: 31.6% | viability, T/C [31]: 33.6% | viability, T/C [32]: 32.9% | viability, T/C [33]: 27.6% | viability, T/C [34]: 23.7% | viability, T/C [35]: 26.4% | viability, T/C [36]: 22.4% | viability, T/C [37]: 23.2% | viability, T/C [38]: 20.7% | viability, T/C [39]: 22.2% | viability, T/C [40]: 22.1% | viability, T/C [41]: 19.9% | viability, T/C [42]: 19.6%

CCC(CC)c1cc(NC2CCC(N)C2)n2nccc2n1 (configuration not stated)
viability, T/C (compound 0.0316 µM): 99.2% [middle of 4 runs] | viability, T/C (compound 0.316 µM): 116% [middle of 4 runs] | viability, T/C (compound 1 µM): 106% [middle of 4 runs] | viability, T/C (compound 3.16 µM): 29.1% [middle of 4 runs] | viability, T/C (compound 10 µM): 37.6% [middle of 4 runs] | IC50 (curve of compound): 2.36 µM [middle of 4 runs]

O=C(c1ccc(F)c(F)c1Nc1ccc(I)cc1F)N1CC(O)([C@@H]2CCCCN2)C1 + C#Cc1c(F)ccc2cc(O)cc(-c3ncc4c(N5CC6CCC(C5)N6)nc(OCC56CCCN5CC(F)C6)nc4c3F)c12
IC50 [1]: 45.2 nM | IC50 [2]: 274 nM | IC50 [3]: 19.8 nM | IC50 [4]: 3.62 nM | IC50 [5]: < 3.16 nM | IC50 [6]: < 3.16 nM | viability, T/C [7]: 70.1% | viability, T/C [8]: 82.2% | viability, T/C [9]: 52.4% | viability, T/C [10]: 47.6% | viability, T/C [11]: 41.5% | viability, T/C [12]: 44.6% | viability, T/C [13]: 81.9% | viability, T/C [14]: 71.6% | viability, T/C [15]: 65.8% | viability, T/C [16]: 53.6% | viability, T/C [17]: 49.1% | viability, T/C [18]: 46.6% | viability, T/C [19]: 75.4% | viability, T/C [20]: 53.2% | viability, T/C [21]: 46.7% | viability, T/C [22]: 43.2% | viability, T/C [23]: 34.9% | viability, T/C [24]: 33.3% | viability, T/C [25]: 50% | viability, T/C [26]: 45.3% | viability, T/C [27]: 31.3% | viability, T/C [28]: 32.1% | viability, T/C [29]: 26.9% | viability, T/C [30]: 26.4% | viability, T/C [31]: 38.2% | viability, T/C [32]: 26.1% | viability, T/C [33]: 24.6% | viability, T/C [34]: 24% | viability, T/C [35]: 19.9% | viability, T/C [36]: 15.7% | viability, T/C [37]: 19.8% | viability, T/C [38]: 17.8% | viability, T/C [39]: 17.9% | viability, T/C [40]: 14% | viability, T/C [41]: 12.2% | viability, T/C [42]: 14.2%
